We go through two compounds from PMC11148078, “Potent activity of polymyxin B is associated with long-lived super-stoichiometric accumulation mediated by weak-affinity binding to lipid A” (Nature Communications, 2024).

Structures are written as SMILES. Bridge positions count the residues as written; N and C are the ends. Square brackets hold non-standard residues; d marks the D form. Peptide text beside a SMILES is read from it. * marks the point of attachment. X1 = CC[C@H](C)CCCCC(=O)*; Dab = NCC[C@H](N)C(=O)O

Assay [1] relates to LPS (rough-LPS extracted from E. coli F583, Rd mutant). The assay can be described thus: Mechanistic SPR study, purified LPS. The conditions noted are these: for Rmax normalized by molecular weight ratio PMB:PMBN: LPS surface. The class given is binding. On the procedure:
OMV-coated and whole cell-coated C1 chips were prepared as already described with the following changes and LPS-coated surfaces were prepared identically but with rough-LPS extracted from E. coli F583 (Rd mutant, Sigma #L6893). For LPS, cloudy colloid suspension (above its CMC, ~1 mg/ml) contains LPS micelles that were injected and captured. For all formats, sample buffer and running buffer were composed of Dulbecco’s phosphate-buffered salt solution containing 0.0005% tween-80 (Sigma), 1 mM calcium and 0.5 mM magnesium (Fisher Scientific), pH 7.4. Analysis and compartment temperatures were both set to 37 °C. Freshly prepared OMV-coated or whole cell-coated sensing surfaces were employed for each injection of polymyxin B while LPS-coated sensing surfaces could be fully regenerated by injecting 50 mM CHAPS. Reversibly bound PMBN could be reinjected over all surfaces without requiring regeneration as it fully dissociated within a few minutes.
Serial doubling dilutions of PMBN were injected from […] over whole cells and OMVs at […] for 1 min (Fig. 3A, B). This was repeated over LPS-coated sensing surfaces and, in this case, serial doubling dilutions of PMBN were injected from 5 mM to 0.625 mM for 30 s at […], immediately prior to injection of […] polymyxin B for 200 s at […] (Fig. 3D).
Fresh sensing surfaces coated with whole cells and OMVs were prepared and 325 nM polymyxin B was injected at […] for 120 s over both. This injection was repeated after a long delay, and without regeneration, in order to allow free sites to become available thereby resulting in two polymyxin B binding curves for each sensing surface (Fig. 3E, F). A fresh LPS-coated surface was prepared and polymyxin B was injected using SCK injection mode over a serial doubling dilution range from 625 nM to 39 nM.
Section 1 - Mechanistic studies of polymyxins
The interaction models introduced here (Eqn (S1-S3)) are annotated in terms of binding of polymyxin B (PMB) to LPS but also apply to any other affinity binding pair. Molar concentrations of bound PMB are converted to SPR response as R = G.MW.[PMB], where MW is the molecular weight of PMB, and G is a mass-to-response conversion factor. A full quantitative interpretation of SPR sensitivity has been reported1. In a general case, a protein concentration of 0.01 (g/L) produces a response of 1 response unit (RU) yielding the proportionality constant G=100 (L/g).
Here, we assume protein is distributed uniformly within a […] thick hydrogel, dissolved in buffer at near physiological salt concentrations in the absence of high concentrations of high refractive index substances, such as glycerol and DMSO. This calibration may be adjusted for variability in the refractive index increment when working with buffers or other classes of molecules such as nucleic acids, polysaccharides, or drug-like molecules. In addition, binding interactions confined to planar sensing surfaces (i.e., no hydrogel matrix) results in a 1.3-fold increased response due to minimal decay in SPR sensitivity when close to the sensing surface (e.g., < 10 nm). Change in protein accumulation over time produces responses that are indicated here by a time subscript (e.g., R(t)). A simple 1:1 model for binding of PMB to LPS to form an affinity complex PMBL is given by the pseudo-first-order model defined by Eqn (S1). dR/dt = (kon.[PMB]i.(Rmax-R(t)) -koff.R(t)) Eqn (S1)
Where R is the SPR response for accumulation of affinity complex PMBL. [PMB]i is the injected concentration of PMB and Rmax is the saturation response assuming full target occupancy. This model assumes that mass transport of PMB within the flow cell, which governs the rate of exchange of PMB between the bulk liquid and the sensing surface, is non-limiting. However, this […]
in the 1:1 two-compartment model in Eqn (S2). dR/dt = (kon.[PMB].(Rmax-R(t)) -koff.R(t)) + kt.([PMB]i(t) – [PMB]) Eqn (S2) […]

The subject of a further assay is E. coli mcr-1+rifampicin. Description: Rifampicin potentiation / outer membrane permeability, E. coli mcr-1. The class given is cell-based. On the procedure:
Bacterial strains and plasmids are listed in SI Table S5. LB growth media was prepared according to manufacturer’s instructions and supplemented with 0.2% arabinose and carbenicillin (50 μg/mL) for the strains containing pBAD24-mcr1 plasmid. Cultures were started by inoculating 3 ml LB with 1–2 colonies from fresh overnight plates and grown at 37 °C until in log phase. Modified minimal inhibitory concentration (MIC) assays were performed in 96-well round bottom polystyrene plates (Corning) with a final volume of 100 µl in LB supplemented with tween-80 at 0.0005%. […] Polymyxin B sulfate (TCI Co. Ltd), polymyxin B nonapeptide (PMBN) (Sigma), and brevicidine (Genentech) were diluted directly in the assay plates. Bacteria were diluted in LB with tween-80 0.0005% and added to a final OD600 of 0.0005. Growth was measured via OD600 on a SpectraMax M5 plate reader after overnight static growth at 37 °C with humidity.

Setting [2] is: LPS pre-saturated with polymyxin B.

For `CC(C)C[C@@H]1NC(=O)[C@@H](Cc2ccccc2)NC(=O)[C@H](CCN)NC(=O)[C@@H](NC(=O)[C@H](CCN)NC(=O)[C@@H](N)[C@@H](C)O)CCNC(=O)[C@H]([C@@H](C)O)NC(=O)[C@H](CCN)NC(=O)[C@H](CCN)NC1=O` [PMBN] (H-T[Dab][Dab][Dab][dF]L[Dab][Dab]T; lactam 3-C), in assay [1] (setting [2]), the “change in affinity and binding capacity after pre-saturation” value was “two-fold drop in both affinity and binding capacity”; the “fold loss in affinity” value worked out at 2 fold; the “fold loss in binding capacity” value is 2 fold. Also, the “Rmax normalized by molecular weight ratio PMB:PMBN” value in assay [1] was determined as 415 RU. For the same compound, in the assay on E. coli mcr-1+rifampicin, the “MIC in presence of rifampicin” value is 2.5 µM.
With `CC[C@H](C)CCCCC(=O)N[C@@H](CCN)C(=O)N[C@H](C(=O)N[C@@H](CCN)C(=O)N[C@H]1CCNC(=O)[C@H]([C@@H](C)O)NC(=O)[C@H](CCN)NC(=O)[C@H](CCN)NC(=O)[C@H](CC(C)C)NC(=O)[C@@H](Cc2ccccc2)NC(=O)[C@H](CCN)NC1=O)[C@@H](C)O` [Polymyxin B] (X1-[Dab]T[Dab][Dab][Dab][dF]L[Dab][Dab]T; lactam 4-C (inferred); N-terminus assumed), in assay [1], the “Rmax normalized by molecular weight ratio PMB:PMBN” value was 407 RU. Moreover, the “consumption of available LPS” value in assay [1] (immediately after polymyxin B saturation) is on record as ~ 40%. The equilibrium dissociation constant (Kd) (as a rule, the constant that tells how readily two partners part at equilibrium) in assay [1] (two LPS densities, pre-saturated with polymyxin B, SCK from 625 nM, Eq. S3, (± SE)) came to 127 nM. Moreover, in the assay with E. coli mcr-1+rifampicin, the “MIC in presence of rifampicin” value worked out at 0.001 µM and the “outer membrane permeabilization / rifampicin potentiation” value is listed as “still potentiated the activity of an antibiotic normally excluded by the outer membrane, rifampicin”.
